Laboratory results reported in US11325892B2, “Compounds and methods for treating cancer” (Mayo Foundation for Medical Education and Research, priority 2014, dated 2022).
Read-outs that look alike come from different tables or passages of the source.

Assays:
Assay type in all cases: cell-based
[1] = system: SNU449 HCC cells; assay: SNU449 cell proliferation (cellular DNA, Hoechst); details: Homo sapiens
Description: SNU449 HCC cells were plated at 20,000 cells/well in 12-well plates. The next day, cells were treated with SSI-4, sorafenib or sorafenib plus SSI-4 at the indicated doses. […] On day 5, cells were frozen, DNA isolated and quantitated by […] (Hoechst reagent) in a spectrophotometer. Cellular DNA is directly proportional to cell number and is commonly used as a measure of cell number. All doses are in replicates of three with the mean +/−standard deviation determined.

[2] = system: A498, ACHN, and Caki1 cell lines; assay: Oleic acid (OA) rescue assay of cell proliferation in ccRCC cells; details: EC50 dose of compound with OA (5 μg/μL); all three cell lines
Description: (§1) Cells were seeded at 5,000 cells/well in clear-bottom 96-well plates in triplicate in Maintenance Media. Drug treatment was applied at a concentration of 1:1000 in reduced serum (3%) Maintenance Media. After 72 hours, cells were washed with PBS, and stored at −80° C. prior to analysis using CyQuant® Proliferation Analysis Kit (Invitrogen) as per manufacturers' protocol for relative fluorescence units. Alternatively, cells were plated 2×10^5/well in 12-well plates (Midwest Scientific) in triplicate prior to drug treatment. After 120 hour treatment, cell number was established using a Coulter Particle Counter (Beckman). Or, cells were plated (0.5 or 1×10^5/well) in 24-well plates (Midwest Scientific), 3×. After 72 hour treatment, cell number established using Coulter Particle Counter (Beckman). Oleic acid-albumin (Sigma Aldrich) was added to media at 5 μM, and was applied adjuvant to drug treatment. Drug stocks were prepared in DMSO (Sigma) at 1000×. EC50 dosing per cell line was calculated using CalcuSyn® analytical software.
A498, ACHN, and Caki1 cell lines were treated with the EC50 dose of each MF-438, ChemBL375265, SSI-1, SSI-4, SSI-3, and SSI-2 with or without concomitant application of OA (5 μg/μL). […] Representative images of A498 cell morphology and density treated with each compound +/−OA are shown in (FIG. 2B).

[3] = system: ATF6-UPRE luciferase reporter in A498 and ACHN cells; assay: ATF6-UPRE luciferase reporter assay; details: EC50 dose, 24H; both cell lines A498 and ACHN; completely blocked with OA
Description: A498 and ACHN cells were transiently transfected with p5×ATF6-GL3 UPR luciferase reporter (Addgene plasmid#11976) and pRL-CMV-renilla (Promega) using Lipofectamine 2000 (Invitrogen). Cells were treated as indicated for 24H, prior to collection and analysis using Promega Dual Luciferase assay kit per manufacturer's specifications. Luciferase activity was measured using Veritas Luminometer (Promega); and results are reported as relative luminescence.
(§2) Activating transcription factor 6 (ATF6) is a key regulator of the unfolded protein response (UPR) that recognizes unfolded protein response elements (UPRE) in the promoter regions of several key mediators of the ER stress response, initiating their transcription (Wang Y, Shen J, Arenzana N, Tirasophon W, Kaufman R J, Prywes R. Activation of ATF6 and an ATF6 DNA binding site by the endoplasmic reticulum stress response. J Biol Chem. Sep. 1, 2000; 275(35):27013-27020). A498 and ACHN transfected with an ATF6-UPRE luciferase reporter were treated with the EC50 doses of ChemBL375265, SSI-1, SSI-4, SSI-3, and SSI-2 with or without OA supplementation were evaluated in order to determine whether the identified compounds could recapitulate activation of the UPR. […] Upregulation of the UPR markers BiP (heat shock 70 kDa protein, GRP78) and CHOP (damage inducible transcript 3, DDIT3) was evaluated by Western blot in A498 and ACHN cells treated with the EC50 doses of ChemBL375265, SSI-1, SSI-4, SSI-3, and SSI-2 with or without OA supplementation.

[4] = system: BiP and CHOP expression in A498 and ACHN cells; assay: Western blot for UPR markers BiP and CHOP; details: EC50 dose; both cell lines; blocked with concomitant OA treatment
Description: Protein extraction and western blot analysis was performed as previously described (Copland J A, Marlow L A, Kurakata S, et al. Novel high-affinity PPARgamma agonist alone and in combination with paclitaxel inhibits human anaplastic thyroid carcinoma tumor growth via p21WAF1/CIP1. Oncogene. Apr 13 2006; 25(16):2304-2317). Primary antibodies included SCD1 (Sigma-Aldrich, #HPA012107), BiP (Cell Signaling, #3183), CHOP (Cell Signaling, #2895), sXBP1(Santa Cruz Biotechnology, #sc-7160), PARP(Cell Signaling, #9542), and β-actin (Sigma-Aldrich, #A5441).
as §2

[5] = system: HK2, a transformed renal epithelial cell line; assay: High-throughput proliferative screen, non-cancerous cells
Description: as §1
In order to identify potential SCD1 inhibitors, a high-throughput proliferative-based screening method was used, with four ccRCC cell lines including A498, ACHN, Caki1, and Caki2. The SCD1 inhibitor MF-438 was included as a positive control. Known compounds ChemBL375265 (Liu G, Lynch J K, Freeman J, et al. Discovery of potent, selective, orally bioavailable stearoyl-CoA desaturase 1 inhibitors. Journal of medicinal chemistry. Jun. 28, 2007; 50(13): 3086-3100) (SetA.100) and SAR707 (Voss M D, Zoller G, Matter H, et al. Discovery and pharmacological characterization of SAR707 as novel and selective small molecule inhibitor of stearoyl-CoA desaturase (SCD1). European journal of pharmacology. May 5, 2013; 707(1-3): 140-146) (TC03.100) were included as single-blinded positive controls, and are indicated with an asterisk (*). […]

[6] = system: kidney cancer cells; assay: Combination with mTor inhibitor temsirolimus, cell proliferation; details: different concentrations with 0, 0.1, 1, and 10 nM temsirolimus

IC50 ([1]; SNU-449, SNU449, read-out: IC50 (dose at which 50% of cell proliferation is inhibited))	SMILES	IC50 ([1]; SNU-449, read-out: IC50 (dose at which 50% of cell proliferation is inhibited))	rescue of cell proliferation with OA [2]	luciferase activity [3]	BiP and CHOP expression [4]	reduction in cell proliferation [5]	kidney cancer cell proliferation [6]
–	CNC(=O)c1cc(Oc2ccc(NC(=O)Nc3ccc(Cl)c(C(F)(F)F)c3)cc2)ccn1 [sorafenib]	2 µM	–	–	–	–	–
0.0032 µM	CNC(=O)c1ccnc(NC(=O)N2CCC(Oc3ccccc3Cl)CC2)c1 [SSI-4, 2-{[4-(2-Chlorophenoxy)piperidine-1-carbonyl]amino}-N-methylpyridine-4-carboxamide]	–	Near total rescue of cell proliferation	significant upregulation of luciferase activity	strongly induced both BiP and CHOP expression	approximately 20%	reduced kidney cancer cell proliferation
